Earlier results, collected in patent US20250268950A1, “PRENATAL SUPPLEMENT” (Arizona Board of Regents on Behalf of Arizona State …, priority 2021, published 2025).
Like-named read-outs stand apart in the source and are kept apart here. Each block holds one compound with its values, some of them ahead of it.

What was measured:
[1] = for blood niacin lower than healthy non-pregnant controls: 20 mg/day, 563 US women
[2] = system: pregnant women; settings: for decrease in anxiety symptoms / decrease in depression: RCT, 1 mg/day; for risk of anemia, RR: meta-analysis of 8 studies, supplementation
[3] = system: infants
[4] = Cochrane, ≥1 g/day, 13 studies, 15,730 women
[5] = meta-analysis of 27 trials, 28,492 women
[6] = meta-analysis of 7 studies, 5-10 mg, usually repeated, imminent very preterm birth
[7] = one or more maternal doses of 10 mg
[8] = meta-analysis of seven RCTs, women with gestational diabetes

Compound: O=C(O)CCCC[C@@H]1SC[C@@H]2NC(=O)N[C@@H]21 [Biotin]
biotin levels ([1]; 30 mcg/day supplemental): sufficient to slightly increase levels of biotin above that of healthy controls
treatment of biotin deficiency ([1]; 300 mcg/day for two weeks): sufficient to treat the deficiency

Compound: [Ca] [Calcium]
incidence of pregnancy-induced hypertension ([2]; 120 mg (18% in control group)): 8.9%
incidence of pregnancy-induced hypertension ([2]; 240 mg (18% in control group)): 7.5%
incidence of pregnancy-induced hypertension ([2]; 1000 mg (18% in control group)): 8%
incidence of pregnancy-induced hypertension ([2]; 2000 mg (18% in control group)): 4%
cases of HELLP ([2]; 1500-2000 mg/day, two trials, 12,901 women (vs. 6 un-supplemented)): 16
risk of preeclampsia, RR ([2]; Cochrane, low-dose <1 g/day, 10 trials, 2234 women): 0.38
maternal death or serious morbidity, RR ([2]; Cochrane, ≥1 g/day): 0.80
risk of high blood pressure, RR [2, 4]: 0.65
risk of preeclampsia, RR [2, 4]: 0.45
rate of proteinuric PIH ([2]; Hong Kong, 600 mg weeks 22-32, 1200 mg/day to birth (vs. 10.7% placebo)): 5.6%
rate of non-proteinuric PIH ([2]; Hong Kong, 600 mg weeks 22-32, 1200 mg/day to birth (vs. 24% placebo)): 15%
reducing risk of preeclampsia, PIH, and hypertension ([2]; Trinidad, 510 women, 1200 mg): much more effective than 600 mg of calcium plus aspirin
gestational hypertension, RR [2, 5]: 0.70
risk of preeclampsia, RR [2, 5]: 0.51
preterm birth, RR ([3]; Cochrane, ≥1 g/day): 0.76
risk of ASD, OR ([3]; retrospective study in China): 0.48

Compound: C[N+](C)(C)CCO [Choline]
safety ([2]; 900 mg/day of choline (as phosphatidylcholine)): safe
Tolerable Upper Limit for Pregnant Women (Table 12): 3500 mg/day

Compound: [Cu] [Copper]
decrease in anxiety symptoms ([2]; second trimester): 45%
decrease in depression ([2]; second trimester): 75%
decrease in anxiety symptoms ([2]; third trimester): 80%
decrease in depression ([2]; third trimester): 90%
copper levels ([1]; 2 mg as part of a multi-vitamin/mineral supplement, France): no difference in copper levels between treatment and placebo groups
Tolerable Upper Limit for Pregnant Women (Table 18): 10 mg

increase of RBC DHA ([1]; 300 mg/day (controls decreased 10%)): 7%
increase of RBC DHA ([1]; 600 g/day group (so in the source)): 21%
Compound: CC/C=C\C/C=C\C/C=C\C/C=C\C/C=C\C/C=C\CCC(=O)O [DHA, Docosahexaenoic acid]

Compound: Nc1nc2ncc(CNc3ccc(C(=O)N[C@@H](CCC(=O)O)C(=O)O)cc3)nc2c(=O)[nH]1 [Folate]
serum folate levels at postpartum ([1]; 355 mcg plus iron supplement, Scotland): sufficient to maintain median serum folate levels at postpartum that were equivalent to that of healthy non-pregnant women

Compound: [Fe] [Iron]
subjects in whom iron deficiency anemia was reduced ([2]; 60 mg 3×/day (180 mg total), 12 participants with IDA): 75%
reduction of iron-deficiency anemia at term ([2]; meta-analysis, 6 trials, 1088 women): 67%
reduction of iron deficiency at term ([2]; meta-analysis, 7 trials, 1256 women): 57%
reduction of maternal anemia at term ([2]; meta-analysis, 14 trials, 2199 women, mostly 30-200 mg/day): 70%
megaloblastic anemia ([2]; only iron (11% unsupplemented)): 6%

blood niacin lower than healthy non-pregnant controls ([1]; first trimester): 29%
blood niacin lower than healthy non-pregnant controls ([1]; second trimester): 35%
blood niacin lower than healthy non-pregnant controls ([1]; third trimester): 38%
Compound: O=C(O)c1cccnc1 [Niacin]

Compound: Cc1cc2nc3c(=O)[nH]c(=O)nc-3n(C[C@H](O)[C@H](O)[C@H](O)CO)c2cc1C [Riboflavin]
cases of severe preeclampsia ([2]; 15 mg/day, Venezuela): significant decrease in the number of cases of severe preeclampsia

Compound: [Se] [Selenium]
reduction of odds of preeclampsia or PIH ([2]; 60 i.g/day, 230 women in the UK): 65%
pregnancy-induced hypertension ([2]; 100 i.g during last 6-8 weeks, women at risk (vs. 23%)): 8%
gestational edema ([2]; 100 i.g during last 6-8 weeks, women at risk (vs. 33%)): 15%
postpartum depression ([2]; 100 i.g/day): treat postpartum depression
existing gestational edema cured ([2]; 100 i.g, 26 cases (1 out of 13 with placebo)): 88%
glucose, insulin, CRP, oxidative stress ([2]; 200 i.g/day for 6 weeks, 70 women with gestational diabetes): significant improvements in fasting glucose, serum insulin, C-reactive protein, and oxidative stress
rate of permanent hypothyroidism ([2]; 200 i.g/day, women at high risk (vs. 20%)): 12%
rate of postpartum thyroid deficiency ([2]; 200 i.g/day, women at high risk (vs. 49%)): 29%

thiamine levels lower than non-pregnant women ([1]; multi-vitamin containing 3 mg, 563 pregnant women): approximately 31%
Compound: Cc1ncc(C[n+]2csc(CCO)c2C)c(N)n1 [Thiamine]
effect on glucose tolerance and intra-uterine growth ([2]; supplementation in pregnant women): improves their glucose tolerance, and stimulates intra-uterine growth

vitamin A levels lower than healthy non-pregnant controls ([1]; 5000 IU/day (50% as beta carotene), first, second, third trimesters): 27%
Compound: CC1=C(/C=C/C(C)=C/C=C/C(C)=C/CO)C(C)(C)CCC1 [Vitamin A, retinol]
reduction of night blindness during pregnancy ([2]; Nepal, 7000 mcg/week): 67%
risk of anemia, RR [2]: 0.81
Tolerable Upper Limit for Pregnant Women (Table 12): 3 mg

Compound: [Zn] [Zinc]
reduction in chance of infant impetigo ([3]; 30 mg/day): 54%
preterm birth, RR ([3]; meta-analysis of 16 randomized, controlled trials, mostly 20-30 mg): 0.86

Compound: CC1=C(/C=C/C(C)=C/C=C/C(C)=C/C=C/C=C(C)/C=C/C=C(C)/C=C/C2=C(C)CCCC2(C)C)C(C)(C)CCC1 [beta-carotene]
benefit on night blindness compared with vitamin A ([2]; Nepal): about half as much benefit
risk of anemia, RR [2]: 0.81

average blood folate level ([1]; 1000 mcg/day, each trimester, 563 US women (10 ng/ml in controls)): 25 to 26 ng/mL
Compound: Nc1nc2ncc(CNc3ccc(C(=O)N[C@@H](CCC(=O)O)C(=O)O)cc3)nc2c(=O)[nH]1 [folic acid]
prevalence of gestational diabetes ([2]; women with PCOS, folic acid only 1.5 mg): 54%
risk of ASD in the child, RR ([3]; meta-analysis of 6 prospective studies, maternal supplementation): 0.64
NTDs, OR ([3]; meta-analysis, multi-vitamin supplement containing folic acid): 0.67

Compound: O=S(=O)([O-])[O-].[Mg+2] [magnesium sulfate, reference compound]
maternal complications ([2]; 4-6 g intravenously): no major complications
reduction of risk of cerebral palsy ([3]; 4-6 g intravenously, mothers at high risk of preterm birth, meta-analysis of five studies): approximately 32%

infant plasma vitamin K as % of formula-fed infants ([1]; lactating mothers 5 mg/day, infants 1 mg intramuscularly at birth): 50%
Compound: CC1=C(C/C=C(\C)CCC[C@H](C)CCC[C@H](C)CCCC(C)C)C(=O)c2ccccc2C1=O [phylloquinone]

Compound: C[Se]CC[C@H](N)C(=O)O [selenome-thionine, selenomethionine]
preeclampsia or preterm birth vs placebo ([2]; 100 i.g/day, randomized trial of 169 women): no significant differences were seen for either preeclampsia or preterm birth

Compound: CC(=O)[O-].CC(=O)[O-].[Zn+2] [zinc acetate]
benefit of zinc form ([3]; two studies): not beneficial

Compound: CC(O)C(=O)[O-].CC(O)C(=O)[O-].[Zn+2] (stereo not shown) [zinc lactate]
low birth weight, preterm birth, intrauterine growth retardation ([3]; 30 mg/day): great improvements in the incidence of low birth weight, preterm birth, and intrauterine growth retardation
benefit ([3]; doses of 5 and 10 mg): no benefit
serum zinc ([1]; 30 mg): enough to slightly increase zinc levels

Compound: O=S(=O)([O-])[O-].[Zn+2] [zinc sulfate]
infant birth weight and head circumference ([3]; 25 mg/day, women with relatively low plasma zinc): greater infant birth weights and head circumferences
decrease of serum zinc, week 17 to week 31-36 ([1]; 20 mg, 138 Hispanic teenagers (14% non-supplemented)): 8%
decrease of plasma zinc from beginning to end of pregnancy ([1]; 25 mg/day, U.S. women with low initial plasma zinc (11% un-supplemented)): 7%
zinc levels ([1]; averaging 11 mg/day, U.S.): little effect on plasma levels but did increase hair and possibly saliva levels

levels lower at end of pregnancy vs healthy non-pregnant controls ([1]; 12 mcg/day, US): 38%
decrease in serum B12 by third trimester vs first ([1]; total consumption of 2× the RDA): 30%
Compound: Cobalamin [Vitamin B12]
maternal and infant B12 levels ([1]; 50 mcg/day during pregnancy and early lactation, India): significant increases in maternal B12 levels in blood and breastmilk, and infant levels of B12
vitamin B12 levels during pregnancy ([1]; approximately 3× the RDA (diet 6 mcg + supplements 2.6 mcg), 26 women): enough to stabilize vitamin B12 levels during pregnancy

risk of childhood cancer ([3]; meta-analysis of 6 studies, infantile supplementation): no risk of childhood cancer
vitamin K level in the infant vs un-supplemented controls, times higher [1, 7]: 2
vitamin K level in the mother vs un-supplemented controls, times higher [1, 7]: 100
Compound: Vitamin K
brain bleeding, RR (non-significant) [3, 6]: 0.76
severe brain bleeding, RR [3, 6]: 0.58
vitamin K level ([1]; pregnant women with previous bariatric surgery, 10 mg per week): normal or above-normal level of vitamin K

bound pantothenic acid as % of levels in controls ([1]; 60 mg from 4.5 months gestation, at 7.5 months): 59%
free pantothenic acid vs controls, fold higher ([1]; 60 mg from 4.5 months gestation, at 7.5 months and at term): 2
bound pantothenic acid as % of levels in controls ([1]; 60 mg from 4.5 months gestation, at term): 104%
Compound: calcium pantothenate
blood levels of pantothenic acid ([1]; 10 mg/day): slightly higher blood levels of pantothenic acid compared to non-pregnant controls

Compound: magnesium gluconate
rate of pregnancy-induced hypertension ([2]; 184 mg/day): substantially reduced the rate of pregnancy-induced hypertension

Compound: omega-3 fatty acids
risk of preeclampsia, RR ([2]; meta-analysis of 14 supplementation studies): 0.82
preeclampsia, RR (possibly reduced) ([2]; meta-analysis of 70 RCTs): 0.84
reduction of depression, SMD ([2]; meta-analysis of eight studies, 638 women with perinatal depression, 1-6 g/day): 0.65
prevention of perinatal depression ([2]; meta-analysis of prophylactic supplementation studies): did not demonstrate a significant benefit
HOMA-IR, std. MD [2, 8]: −0.52
fasting plasma glucose, std. MD [2, 8]: −0.56
high-sensitivity CRP, std. MD [2, 8]: −1.14
neonatal care admissions, RR (possibly fewer) ([3]; meta-analysis of 70 RCTs): 0.92
perinatal death, RR (possibly reduced) ([3]; meta-analysis of 70 RCTs): 0.75
macrosomia, RR (possible) [3, 8]: 0.48
newborns' hyperbilirubinemia, RR (possible) [3, 8]: 0.46
prolonged gestation (>42 weeks), RR ([3]; meta-analysis, 6 RCTs, 5141 participants): 1.61
early preterm birth (<34 weeks), RR ([3]; meta-analysis, 9 RCTs, 5204 participants): 0.58
low birth weight, RR ([3]; meta-analysis, 15 trials, 8449 participants): 0.90
preterm birth (<37 weeks), RR ([3]; meta-analysis, 26 RCTs, 10,304 participants): 0.89
mean increase in length of gestation ([3]; meta-analysis, 41 trials, 12,517 participants): 1.67 days
